Measurements taken from patent publication US20250179047A1, “5-[7-(3,4-DIHYDRO-1H-ISOQUINOLINE-2-CARBONYL)-1,2,3,4 TETRAHYDROISOQUINOLIN-6-YL]-1H-PYRROLE-3-CARBOXAMIDE DERIVATIVES, PHARMACEUTICAL COMPOSITIONS CONTAINING THEM AND THEIR USES AS PRO-APOPTOTIC AGENTS” (LES LABORATOIRES SERVIER, priority 2022, published 2025).
Where two headings read alike, the source gives them in different places.

Tests used:
BCL2 G101V [1] = experiment: TR-FRET competitive binding assay, BCL2 G101V; design: species or system human; settings: for TR_FRET EKI G101V/WT selectivty ratio: ratio Ki BCL2 G101V / Ki BCL2 WT; for TR_FRET EKI G101V/WT selectivty: ratio of Ki BCL2 G101V to BCL2 WT
Procedure, shortened: (§1)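 Terbium-labelled N-terminal Halo-fusion BCL2 or BCLXL (E. coli), 0.5 nM, competed against fluorescein-labelled PUMA peptide (2 or 20 nM) for 2 h at 23° C in 50 mM Hepes pH 7.5, 150 mM NaCl, 5% DMSO. TR-FRET 520/495 nm ratio gave IC50 by four-parameter fit; Ki derived from IC50.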

BCL2 G101V [2] = biological target: BCL2 G101V (Homo sapiens, UniProt P10415, G101V); experiment: TR-FRET competitive binding assay, BCL2 G101V; settings: BCL2 G101V; Ki determined from IC50; read-out: TR_FRET EKI_Bcl2 G101V
Procedure, shortened: as §1

BCLXL WT = BCLXL WT (Homo sapiens (Human), UniProt Q07817); experiment: TR-FRET competitive binding assay, BCLXL WT; settings: for Ki: BCLXL WT, Ki determined from IC50, read-out: TR_FRET EKI BclxL; for TR_FRET EKI BCLxL/WT selectivty ratio: ratio Ki BCLxL / Ki BCL2 WT; for TR_FRET EKI BCLxL/WT selectivty: ratio of Ki BCLxL to BCL2 WT
Procedure, shortened: as §1

KMS-12-PE Bcl-2 WT = experiment: In vitro cytotoxicity CellTiter-Glo 48 h, KMS-12-PE Bcl-2 WT; assay type: cell-based; settings: Homo sapiens, KMS-12-PE, C50 = concentration needed to reach 50% of the cellular viability
Procedure, shortened: (§2)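 CTG luminescence read-out; C50 = concentration reaching 50% cellular viability. Cells: KMS-12-PE expressing Bcl-2 WT or G101V (lentiviral, TagRFP-sorted). 11-pt curve, 48 h, 37 °C/5% CO2.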

BCL2 WT = BCL2 WT (Homo sapiens (Human), UniProt P10415); experiment: TR-FRET competitive binding assay, BCL2 WT
Procedure, shortened: as §1

BCL2 F104I = BCL2 F104I (Homo sapiens, UniProt P10415, F104I); experiment: TR-FRET competitive binding assay, BCL2 F104I; settings: Ki determined from IC50, read-out: TR_FRET EKI_Bcl2 F104I
Procedure, shortened: as §1

[3] = Pharmacokinetics in SCID mice; assay type: in vivo; settings: 25 mg/kg IV bolus
Description: (§3) Pharmacokinetic (PK) and platelet toxicity were investigated in SCID mice. Compounds were administered at 25 mg/kg by IV bolus, and formulated in PEG/Ethanol/NaCl 0.9% (40/10/50 v/v/v).
(§4) Blood samples (3 animals/time point and 3 time points/animal) were collected over 24 h after dosing: 0.05 h, 0.5 h, 1 h, 3 h, 6 h and 24 h for PK and 6 h and 24 h for platelets.
(§5) PK samples were analyzed by liquid chromatography using tandem mass spectrometry detection (LC-MS/MS) and platelet count (109/L) was measured using an hematology analyzer. Percentage of platelet loss was calculated at both time points (T+6 h and 24 h) as compared to a control group of 6 animals. PK parameters (Cinf and AUC24, which correspond to the concentration at the end of bolus administration and the area under curve over 24 h, respectively) were also determined using a non-compartmental analysis.

KMS-12-PE Bcl-2 G101V = experiment: In vitro cytotoxicity CellTiter-Glo 48 h, KMS-12-PE Bcl-2 G101V; assay type: cell-based; settings: for Ratio (G101V/WT): C50 KMS-12-PE Bcl-2 G101V over C50 KMS-12-PE Bcl-2 WT; for IC50: Homo sapiens, KMS-12-PE, 48 h, CellTiter-Glo, C50 = concentration needed to reach 50% of the cellular viability
Procedure, shortened: as §2

platelets = experiment: Platelet depletion in SCID mice; assay type: in vivo; settings: 25 mg/kg IV bolus, vs control group
Description: as §3, §4, §5

BCL2 D111A = BCL2 D111A (Homo sapiens, UniProt P10415, D111A); experiment: TR-FRET competitive binding assay, BCL2 D111A; settings: Ki determined from IC50, read-out: TR_FRET EKI_Bcl2 D111A
Procedure, shortened: as §1

BCL2 D103Y = BCL2 D103Y (Homo sapiens, UniProt P10415, D103Y); experiment: TR-FRET competitive binding assay, BCL2 D103Y; settings: Ki determined from IC50, read-out: TR_FRET EKI_Bcl2 D103Y
Procedure, shortened: as §1

[4] = Ki determined from IC50, read-out: TR_FRET EKI_Bcl2 WT
[5] = Ki determined from IC50, read-out: TR_FRET EKI_Bcl2

BCLXL WT, sequence (Q07817 other isoform, or with tags, fused parts or gaps): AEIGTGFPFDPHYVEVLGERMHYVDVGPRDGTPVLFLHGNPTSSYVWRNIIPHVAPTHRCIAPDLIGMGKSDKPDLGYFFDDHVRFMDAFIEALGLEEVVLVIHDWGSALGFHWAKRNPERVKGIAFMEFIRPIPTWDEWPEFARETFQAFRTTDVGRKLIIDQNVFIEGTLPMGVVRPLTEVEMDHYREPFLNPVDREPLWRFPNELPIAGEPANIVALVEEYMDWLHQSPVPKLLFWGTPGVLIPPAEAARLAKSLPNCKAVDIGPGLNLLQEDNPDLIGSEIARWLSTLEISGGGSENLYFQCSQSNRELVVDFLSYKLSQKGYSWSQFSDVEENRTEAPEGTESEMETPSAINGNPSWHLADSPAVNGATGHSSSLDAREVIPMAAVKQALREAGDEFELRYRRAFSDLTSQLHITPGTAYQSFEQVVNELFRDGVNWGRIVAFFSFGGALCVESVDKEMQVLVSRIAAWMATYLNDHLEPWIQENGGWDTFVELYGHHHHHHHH

Compound: Cc1c(N(C(=O)c2cc(-c3cc4c(cc3C(=O)N3Cc5ccccc5C[C@H]3CN3CCCCC3)CN(C(=O)Cc3ccc(OCCC5CCOCC5)cc3F)CC4)n(C)c2C)c2ccc(O)cc2)cc(C#N)n1C [Example 34, N-(5-cyano-1,2-dimethylpyrrol-3-yl)-5-[2-(2-{2-fluoro-4-[2-(oxan-4-yl)ethoxy]phenyl}acetyl)-7-{[(3S)-3-(piperidin-1-ylmethyl)-3,4-dihydro-1H-isoquinolin-2-yl]carbonyl}-3,4-dihydro-1H-isoquinolin-6-yl]-N-(4-hydroxyphenyl)-1,2-dimethylpyrrole-3-carboxamide]
- TR_FRET EKI G101V/WT selectivty ratio (BCL2 G101V [1]): 2.6
- Ki (BCL2 G101V [2]): 0.9 nM
- Ki (BCLXL WT): 5.3 nM
- TR_FRET EKI BCLxL/WT selectivty ratio (BCLXL WT): 15.6
- IC50 (KMS-12-PE Bcl-2 WT): 0.0052 µM
- Ki (BCL2 WT; [4]): 0.34 nM
- Ki (BCL2 F104I): 0.27 nM
- PK parameters Cinf ([3]; concentration at the end of bolus administration): 8.2 µM
- AUC ([3]; mouse, blood, area under curve over 24 h, read-out: PK parameters AUC24): 9.7 µM·h
- Ratio (G101V/WT) (KMS-12-PE Bcl-2 G101V): 5.29
- IC50 (KMS-12-PE Bcl-2 G101V): 0.0275 µM
- Platelet loss (%) 6 h (platelets; 6 h after dosing): 33.7%
- Platelet loss (%) 24 h (platelets; 24 h after dosing): 18.2%
- Ki (BCL2 D111A): 0.2 nM
- Ki (BCL2 D103Y): 0.52 nM

Compound: Cc1c(N(C(=O)c2cc(-c3cc4c(cc3C(=O)N3Cc5ccccc5C[C@H]3CN(C(C)C)C(C)C)CN(C(=O)Cc3ccc(OCCN5CCOCC5)cc3F)CC4)n(C)c2C)c2ccc(O)cc2)cc(C#N)n1C [Example 152, N-(5-cyano-1,2-dimethylpyrrol-3-yl)-5-(7-{[(3S)-3-[(diisopropylamino)methyl]-3,4-dihydro-1H-isoquinolin-2-yl]carbonyl}-2-(2-{2-fluoro-4-[2-(morpholin-4-yl)ethoxy]phenyl}acetyl)-3,4-dihydro-1H-isoquinolin-6-yl)-N-(4-hydroxyphenyl)-1,2-dimethylpyrrole-3-carboxamide]
- TR_FRET EKI G101V/WT selectivty ratio (BCL2 G101V [1]): 6.9
- Ki (BCL2 G101V [2]): 1.1 nM
- Ki (BCLXL WT): 3.9 nM
- TR_FRET EKI BCLxL/WT selectivty ratio (BCLXL WT): 24.4
- IC50 (KMS-12-PE Bcl-2 WT): 0.0105 µM
- Ki (BCL2 WT; [4]): 0.16 nM
- Ki (BCL2 F104I): 0.64 nM
- Ratio (G101V/WT) (KMS-12-PE Bcl-2 G101V): 3.5238
- IC50 (KMS-12-PE Bcl-2 G101V): 0.037 µM
- Ki (BCL2 D111A): 0.36 nM
- Ki (BCL2 D103Y): 0.41 nM

Compound: Cc1c(C(=O)N(c2ccc(O)cc2)c2cnn(C(F)F)c2)cc(-c2cc3c(cc2C(=O)N2Cc4ccccc4C[C@H]2C)CN(C(=O)Cc2ccc(OCCN4CCOCC4)cc2)CC3)n1C [Example 228, N-[1-(difluoromethyl)pyrazol-4-yl]-5-[2-[2-[4-(2-morpholinoethoxy)phenyl]acetyl]-7-[(3R)-3-methyl-3,4-dihydro-1H-isoquinoline-2-carbonyl]-3,4-dihydro-1H-isoquinolin-6-yl]-N-(4-hydroxyphenyl)-1,2-dimethyl-pyrrole-3-carboxamide]
- TR_FRET EKI G101V/WT selectivty (BCL2 G101V [1]): 14
- Ki (BCL2 G101V [2]): 0.84 nM
- Ki (BCLXL WT): 14.9 nM
- TR_FRET EKI BCLxL/WT selectivty (BCLXL WT): 248.3
- IC50 (KMS-12-PE Bcl-2 WT): 0.0146 µM
- Ki (BCL2 WT; [5]): 0.06 nM
- Ki (BCL2 F104I): 1.6 nM
- Ratio (G101V/WT) (KMS-12-PE Bcl-2 G101V): 11.0
- IC50 (KMS-12-PE Bcl-2 G101V): 0.161 µM
- Ki (BCL2 D111A): 0.2 nM
- Ki (BCL2 D103Y): 0.21 nM

Compound: Cc1c(N(C(=O)c2cc(-c3cc4c(cc3C(=O)N3Cc5ccccc5C[C@H]3CN3CCCCC3)CN(C(=O)Cc3ccc(OCCN5CCOCC5)cc3F)CC4)n(C)c2C)c2ccc(O)cc2)cc(C#N)n1C [Example 229]
- TR_FRET EKI G101V/WT selectivty (BCL2 G101V [1]): 5.5
- Ki (BCL2 G101V [2]): 0.22 nM
- Ki (BCLXL WT): 1.8 nM
- TR_FRET EKI BCLxL/WT selectivty (BCLXL WT): 45
- IC50 (KMS-12-PE Bcl-2 WT): 0.00502 µM
- Ki (BCL2 WT; [5]): 0.04 nM
- Ki (BCL2 F104I): 0.164 nM
- Ratio (G101V/WT) (KMS-12-PE Bcl-2 G101V): 4.4
- IC50 (KMS-12-PE Bcl-2 G101V): 0.0222 µM
- Ki (BCL2 D111A): 0.1 nM
- Ki (BCL2 D103Y): 0.11 nM
